In patent publication US20170367338A1, “COMPOSITIONS AND METHODS FOR IMPROVING AGRONOMIC CHARACTERISTICS OF PLANTS” (MONSANTO TECHNOLOGY LLC, priority 2014, published 2017):
In brackets after ≈: the same amount, converted by molar mass. Like-named read-outs stand apart in the source and are kept apart here.

Columns and labels:
[1] = tested on: Heterodera glycines (SCN); assay: Seed treatment test of soybean cyst nematode on soybean; type: in vivo; conditions: Heterodera glycines, 672 h, test a, read-out: percent cyst reduction relative to control blank treatment
Method in brief: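 Seeds (1 g cucumber for RKN, soybean for SCN) coated with compound in 500 ul acetone, air-dried, sown in sandy soil. Pots inoculated 3 days later with 1000 eggs per pot. Galling rated 14 days (RKN) or 28 days (SCN) after inoculation.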

[2] = type: in vivo; conditions: three female mice, observed up to 14 days
Method: Acute oral toxicity testing was performed in mice in accordance with test method P203.UDP, as administered by Eurofins/Product Safety Laboratories (Dayton, New Jersey). CD-1/Swiss derived albino mice were obtained and group housed in suspended solid bottom caging. The mice were fed rodent chow and filtered tap water was supplied ad libitum. Following acclimation to the laboratory setting, a group of animals was fasted overnight by removing food from the cages. After the fasting period, three female mice were selected based on vitality and initial body weights. The individual compound doses were calculated from these body weights.
The test substance was prepared as a 1% (50 mg/kg) or 5% (500 mg/kg) weight to weight (w/w) mixture in a 0.5% w/w solution of carboxymethylcellulose (CMC) in distilled water. A tissue homogenizer was used to create a homogeneous mixture. A dose of 50 or 500 mg/kg was administered to three healthy mice per dose level by oral intubation using a ball-tipped gavage needle attached to a syringe. After administration, the animals were returned to their cages, and feed was replaced immediately after dosing.
Body weights were recorded prior to initiation and on Days 7 and 14 or a soon as possible after death.

root knot nematode (RKN) = assay: RKN greenhouse soil assay on cucumber plants; type: in vivo; conditions: Radex emulsifiable concentrate formulation (6.25% active ingredient)
Meloidogyne incognita [3] = assay: M. incognita miniaturized greenhouse assay on cucumber seedlings; type: in vivo; conditions: 1 ppm; Table 1C test a
Method in brief: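 Compound in acetone/Triton X100 diluted into water with 0.015% Triton X100, applied to sand vials holding 3-day cucumber sprouts; 500 M. incognita eggs inoculated two days after planting. Roots rated 10–12 days post-inoculation for % galling (0–3 scale, triplicate mean) plus visual root-stunting phytotoxicity.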

Meloidogyne incognita [4] = assay: Summer field evaluation of pre-plant incorporated compounds on squash; type: in vivo; conditions: 4 kg/ha
Method in brief: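 Compound in acetone/Triton X-100 emulsion mixed into sand/silt loam with galled tomato roots, filling top 15 cm of field plots (pre-plant incorporated), 6 replicates. Plots inoculated with 100k M. incognita eggs/larvae at 5 cm depth. Squash cv. Liberator III transplanted 4 days after treatment.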

C. elegans = assay: Three day C. elegans well assay; type: in vivo; conditions: Caenorhabditis elegans
Method in brief: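 Contact assay in wells: DMSO dilutions (4 ul from 100× stocks at 10 mg/ml) with bacterial feed in M9 buffer plus ampicillin and nystatin. L1 (starvation-arrested) or L4 worms added, shaken at 20° C. Scored at 4, 24, 48 and 72 hours.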

[5] = tested on: Caenorhabditis elegans ced-3(n717) and ced-4(N1162) mutants; assay: Susceptibility of C. elegans apoptosis mutants on NGM agar plates; type: in vivo; conditions: 10μg/ml on NGM agar plates

With `c1ccc(-c2noc(-c3cccs3)n2)cc1` [compound 1822] the pest or weed control at 0.375 mg/g ([1]; 0.375 mg ai/gram seed) was 58%, the pest or weed control at 1.5 mg/g ([1]; 1.5 mg ai/gram seed) was 70% and the “acute oral toxicity: mortality and signs” value ([2]; 50 mg/kg oral) was “all animals survived”. For the same compound, the “acute oral toxicity: mortality and signs” value ([2]; 500 mg/kg oral) was “all animals died within three days”, the “percent control (galling reduction), Radex 1 mg/kg” value (root knot nematode (RKN)) was 98% and the “1 ppm gall rating” value (Meloidogyne incognita [3]) was 0 (0=0-5%).

In the case of `Cc1cc(Cl)ccc1-c1noc(-c2ccco2)n1` [compound 5823], the “control of M. incognita by PPI application” value (Meloidogyne incognita [4]) is reported as “excellent control”, the EC50 (C. elegans; 24 h, L1 larvae, one day of exposure, read-out: EC50 L1 1D) is reported as 0.4 µg/mL (≈ 1.53 µM) and the EC50 (C. elegans; 24 h, L4 larvae, one day of exposure, read-out: EC50 L4 1D) is reported as 1.6 µg/mL (≈ 6.14 µM). The EC50 (C. elegans; 48 h, L1 larvae, two days of exposure, read-out: EC50 L1 2D) was 0.4 µg/mL (≈ 1.53 µM), the EC50 (C. elegans; 48 h, L4 larvae, two days of exposure, read-out: EC50 L4 2D) was 0.4 µg/mL (≈ 1.53 µM) and the EC50 (C. elegans; 72 h, L1 larvae, three days of exposure, read-out: EC50 L1 3D) was 0.4 µg/mL (≈ 1.53 µM). For the same compound, the EC50 (C. elegans; 72 h, L4 larvae, three days, effects on the second generation larvae, read-out: EC50 L4 3D (F1)) was 0.4 µg/mL (≈ 1.53 µM) and the “susceptibility of ced-3 and ced-4 mutants versus wild-type C. elegans (N2 Bristol), including time to mortality” value [5] was “No observable phenotypic difference in susceptibility”.
